The term melting point denotes the temperature of the solid-liquid transition.

These results are taken from patent publication US6770664B2, “Bicyclic heterocyclic substituted phenyl oxazolidinone antibacterials, and related compositions and methods” (priority 1999, dated 2004).

The structures appear in SMILES notation.

The compound `CC(=O)NC[C@H]1CN(c2ccc(N3Cc4cnn(CC5CC5)c4C3)c(F)c2)C(=O)O1` (single isomer, unassigned) [Compound 73] came in with a melting point of 234 to 236 °C.
With `CC(=O)NC[C@H]1CN(c2ccc(N3Cc4ccccc4C3)c(F)c2)C(=O)O1` [Compound 1, N-[[(5S)-3-[4-(1,3-Dihydro-2H-isoindol-2-yl)-3-fluorophenyl]-2-oxo-5-oxazolidinyl]methyl]acetamide] the figure was 240 to 242 °C; with `O=C1O[C@@H](CO)CN1c1ccc(N2Cc3cccnc3C2)c(F)c1` [Compound 2, (5R)-3-[4-(5,7-Dihydro-6H-pyrrolo[3,4-b]pyridin-6-yl)-3-fluorophenyl]-5-(hydroxymethyl)-2-oxazolidinone], 208 to 212 °C (dec.); with `CC(=O)NC[C@H]1CN(c2ccc(-n3cc4cccnc4c3)c(F)c2)C(=O)O1` [Compound 4], 220 to 225 °C (dec.).
Next, `CC(=O)NC[C@@H]1CN(c2ccc(-n3cc4cccnc4c3)c(F)c2)C(=O)O1` [Compound 6]: 181 to 185 °C (dec.); `O=C1O[C@@H](COc2ccon2)CN1c1ccc(N2Cc3cccnc3C2)c(F)c1` [Compound 7]: 182 to 185 °C; `O=C1O[C@@H](COc2ccon2)CN1c1ccc(-n2cc3cccnc3c2)c(F)c1` [Compound 8]: 133 to 135 °C.
With `O=C1O[C@@H](COc2cnccn2)CN1c1ccc(N2Cc3cccnc3C2)c(F)c1` [Compound 9] the figure was 225 to 230 °C; with `O=C1O[C@@H](COc2cnccn2)CN1c1ccc(-n2cc3cccnc3c2)c(F)c1` [Compound 10], 192 to 194 °C; with `O=C1O[C@@H](COc2cnsn2)CN1c1ccc(N2Cc3cccnc3C2)c(F)c1` [Compound 11], 185 to 187 °C.
Take `O=C1O[C@@H](COc2cnsn2)CN1c1ccc(-n2cc3cccnc3c2)c(F)c1` [Compound 12]: the melting point lay within 185 to 188 °C.
Next, `CCC(=O)NC[C@H]1CN(c2ccc(N3Cc4cccnc4C3)c(F)c2)C(=O)O1` [Compound 13]: 110 to 112 °C; `O=C(NC[C@H]1CN(c2ccc(N3Cc4cccnc4C3)c(F)c2)C(=O)O1)C1CC1` [Compound 15]: 235 to 240 °C; `CS(=O)(=O)NC[C@H]1CN(c2ccc(N3Cc4cccnc4C3)c(F)c2)C(=O)O1` [Compound 20]: 172 to 176 °C.
With `CS/C(=N\C#N)NC[C@H]1CN(c2ccc(N3Cc4cccnc4C3)c(F)c2)C(=O)O1` [Compound 22] the figure was 204 to 207 °C.
Next, `N/C(=N\[N+](=O)[O-])NC[C@H]1CN(c2ccc(N3Cc4cccnc4C3)c(F)c2)C(=O)O1` [Compound 24]: 202 to 206 °C; `CC(=O)NC[C@H]1CN(c2ccc(-n3cc4cc[n+]([O-])cc4c3)c(F)c2)C(=O)O1` [Compound 27, N-[[(5S)-3-[3-Fluoro-4-(5-oxido-2H-pyrrolo[3,4-c]pyridin-2-yl)phenyl]-2-oxo-5-oxazolidinyl]methyl]acetamide]: 219 to 225 °C (dec.).
With `CC(=O)NC[C@H]1CN(c2ccc(-n3cc4ccncc4c3)c(F)c2)C(=O)O1` [Compound 28], the melting point is 219 to 225 °C (dec.).
In the case of `CC(=O)NC[C@H]1CN(c2ccc(N3Cc4cnc(C)nc4C3)c(F)c2)C(=O)O1` [Compound 35], the melting point is 234 °C (dec.).
Next, `CC(=O)NC[C@H]1CN(c2ccc(N3Cc4cncnc4C3)c(F)c2)C(=O)O1` [Compound 36]: 230 to 232 °C; `CC(=O)NC[C@H]1CN(c2ccc(-n3cc4cncnc4c3)c(F)c2)C(=O)O1` [Compound 37]: 164 to 166 °C; `CC(=O)NC[C@H]1CN(c2ccc(N3Cc4cnc(-c5cnccn5)nc4C3)c(F)c2)C(=O)O1` [Compound 38]: 212 to 214 °C.
With `CC(=O)NC[C@H]1CN(c2ccc(N3Cc4cnc(-c5ccncc5)nc4C3)c(F)c2)C(=O)O1` [Compound 41] the figure was 245 to 250 °C (dec.); with `CC(=O)NC[C@H]1CN(c2ccc(N3Cc4cnc(-c5ccccn5)nc4C3)c(F)c2)C(=O)O1` [Compound 42], 216 to 220 °C; with `CC(=O)NC[C@H]1CN(c2ccc(N3Cc4cnc(-c5cccnc5)nc4C3)c(F)c2)C(=O)O1` [Compound 43], 265 to 270 °C (dec.).
In the case of `CC(=O)NC[C@H]1CN(c2ccc(N3Cc4c[nH]nc4C3)c(F)c2)C(=O)O1` [Compound 44], the melting point was 244 to 247 °C (dec.).
Next, `CCCn1ncc2c1CN(c1ccc(N3C[C@H](CNC(C)=O)OC3=O)cc1F)C2` [Compound 45]: 204 to 208 °C.
Next, `CC(=O)NC[C@H]1CN(c2ccc(N3Cc4ccccc4C3=O)c(F)c2)C(=O)O1` [Compound 46, N-[[(5S)-3-[4-(1,3-dihydro-1-oxo-2H-isoindol-2-yl)-3-fluorophenyl]-2-oxo-5-oxazolidinyl]methyl]acetamide]: 211 to 214 °C; `CC(=O)NC[C@H]1CN(c2ccc(N3C(=O)c4ccccc4C3=O)c(F)c2)C(=O)O1` [Compound 47]: 240 to 242 °C.
With `CC(=O)NC[C@H]1CN(c2ccc(N3Cc4cccnc4C3=O)c(F)c2)C(=O)O1` [Compound 48] the figure was 230 to 232 °C; with `CC(=O)NC[C@H]1CN(c2ccc(N3Cc4ncccc4C3=O)c(F)c2)C(=O)O1` [Compound 49], 207 to 209 °C; with `CC(=O)NC[C@H]1CN(c2ccc(N3Cc4cnn(C)c4C3)c(F)c2)C(=O)O1` [Compound 50], 211 to 213 °C.
`CC(=O)NC[C@H]1CN(c2ccc(N3Cc4cn(-c5ccccn5)nc4C3)c(F)c2)C(=O)O1` [Compound 51]: the melting point is 259 to 261 °C (dec.).
Next, `CC(=O)NC[C@H]1CN(c2ccc(N3Cc4cnn(C(C)(C)C)c4C3)c(F)c2)C(=O)O1` [Compound 52]: 155 to 157 °C.
Next, `CC(=O)NC[C@H]1CN(c2ccc(N3Cc4cnn(CCO)c4C3)c(F)c2)C(=O)O1` [Compound 53]: 163 to 165 °C; `CC(=O)NC[C@H]1CN(c2ccc(N3Cc4cn(CCO)nc4C3)c(F)c2)C(=O)O1` [Compound 65, N-[[(5S)-3-[4-[2,6-dihydro-2-(2-hydroxyethyl)pyrrolo[3,4-c]pyrazol-5(4H)-yl]-3-fluorophenyl]-2-oxo-5-oxazolidinyl]methyl]acetamide]: 232 to 242 °C (dec.).
The compound `CC(=O)NC[C@H]1CN(c2ccc(N3Cc4cn(C[C@H](O)CO)nc4C3)c(F)c2)C(=O)O1` [Compound 66] had a melting point of 188 to 191 °C.
Next, `CC(=O)NC[C@H]1CN(c2ccc(N3Cc4cn(CCCO)nc4C3)c(F)c2)C(=O)O1` [Compound 68]: 171 to 173 °C.
With `CC(=O)NC[C@H]1CN(c2ccc(N3Cc4cn(C[C@@H](O)CO)nc4C3)c(F)c2)C(=O)O1` [Compound 69] the figure was 184 to 188 °C; with `CC(=O)NC[C@H]1CN(c2ccc(N3Cc4cn(CC(F)(F)F)nc4C3)c(F)c2)C(=O)O1` [Compound 70], 170 to 172 °C.
With `CNC(=S)n1cc2c(n1)CN(c1ccc(N3C[C@H](CNC(C)=O)OC3=O)cc1F)C2` [Compound 87] the figure was 246 to 249 °C.
For the compound `[N-]=[N+]=NC[C@H]1CN(c2ccc(N3Cc4cccnc4C3)c(F)c2)C(=O)O1` [Example 7], the melting point is 175 to 180 °C (dec.).
